# Results as given in patent publication US20230106943A1, “ENGINEERED ANTIMICROBIAL PEPTIDES AND USAGE THEREOF” (Peptilogics, Inc., priority 2021, published 2023).
# No end group written: not given here.
# Assays:
# [1] = Example 7 stability of 1 mg/mL SEQ ID NO: 1 solutions at pH 4-7, HPLC % area over storage; assay type: physicochemical
# Protocol: SEQ ID NO: 1 was dissolved in sterile water for injection resulting solutions at a concentration of 1 mg/mL and pH adjusting agents were added to achieve a pH value in the range of 4-7. The pH adjusting chosen were acetate and sodium hydroxide and citric acid (for pH 4). Each of the solutions were filtered through a 0.45 um filter and samples were stored in 1 mL aliquots at 40° C., room temperature (approximately 20° C.), refrigerated conditions (5° C.), and frozen at −20° C. Samples were withdrawn at regular intervals (t=0, and Days 2, 7, 14, and 28) and analyzed by HPLC to determine if chemical degradation of the peptide could be detected in any samples. Degradation rates between samples of each pH were also analyzed.
# [2] = Stability of 5 mg/mL SEQ ID NO: 1 solution pH 5.0 stored at 40° C. or −20° C. (content, pH, HPLC area %); assay type: physicochemical
substance,measurement,setting,value
RRWVRRVRRVWRRVVRVVRRWVRR-NH2 [SEQ ID NO: 1],impurity change by HPLC % area,"[1]; pH 4-7 samples, after 7 days of storage at 40° C.",no significant evidence of impurity increase
same,overall stability as a function of pH,[1]; pH 4 and pH 5 made with acetic acid,maximum stability
same,impurity change by HPLC % area,"[1]; prepared at pH 4 with citrate, after 27 days of storage at 40° C.",increase in impurities
same,impurity change by HPLC % area,"[1]; prepared at pH 7, after 27 days of storage at 40° C.",increase in impurities
same,Solution pH,[2]; 7 days/−20° C.,4.95
same,Main peak SEQ ID NO: 1 area %,[2]; 14 days/−20° C.,95.4%
same,SEQ ID NO: 1 content,[2]; 54 days/−20° C.,5.09 mg/mL
same,Solution pH,[2]; 54 days/−20° C.,4.95
